From patent US20250002464A1, “NOVEL COMPOUND AND PHARMACEUTICAL COMPOSITION COMPRISING SAME” (SAPIENSBIO INC., priority 2021, published 2025)

test system: α-SMA; test: α-SMA expression inhibitory ability in MRC5 cell line (Western blotting); format: cell-based; conditions: TGF-β1 (10 ng/mL), 72 hours, relative to TGF-β1 only
Experimental: Subsequently, the inhibitory effect on pulmonary fibrosis of the compounds according to the present invention was overall evaluated. An MRC5 cell line was treated with each compound at 10 μM, and 2 hours later, treated with TGF-β1 (10 ng/mL). After 72 hours, the cells were lysed using RIPA Buffer, and then an α-SMA protein level was measured through Western blotting. The α-SMA expression level when treating the cells with each compound and TGF-β1 compared to the α-SMA expression level when treating the cells only with TGF-β1 without the compound was calculated as the α-SMA expression inhibitory ability of the corresponding compound. The α-SMA expression inhibitory ability of each compound is summarized in Table 2 below (A: inhibitory ability≥70%, B: 50%: inhibitory ability<70%, C: inhibitory ability<50%).

Structure (SMILES)	inhibition at 10 µM [%]
CC1CCCN1CCC(=O)N1CCN(c2ccc(F)cc2)c2cc(F)ccc21 (stereo in doubt) [Compound 40, (R)-1-(6-fluoro-4-(4-fluorophenyl)-3,4-dihydroquinoxaline-1(2H)-yl)-3-(2-methylpyrrolidin-1-yl)propan-1-one]	< 50
O=C(CCN1CCCC1)N1CCN(c2ccccc2)c2cc(F)ccc21 [Compound 1, 1-(6-fluoro-4-phenyl-3,4-dihydroquinoxaline-1(2H)-yl)-3-(pyrrolidin-1-yl)propan-1-one]	50 to 70
O=C(CCN1CCOCC1)N1CCN(c2ccccc2)c2cc(F)ccc21 [Compound 2, 1-(6-fluoro-4-phenyl-3,4-dihydroquinoxaline-1(2H)-yl)-3-morpholinopropan-1-one]	< 50
O=C(CCN1CCCCC1)N1CCN(c2ccccc2)c2cc(F)ccc21 [Compound 3, 1-(6-fluoro-4-phenyl-3,4-dihydroquinoxaline-1(2H)-yl)-3-(piperidin-1-yl)propan-1-one]	50 to 70
CN1CCN(CCC(=O)N2CCN(c3ccccc3)c3cc(F)ccc32)CC1 [Compound 4, 1-(6-fluoro-4-phenyl-3,4-dihydroquinoxaline-1(2H)-yl)-3-(4-methylpiperazin-1-yl)propan-1-one]	50 to 70
C[C@@H]1CCCN1CCC(=O)N1CCN(c2ccccc2)c2cc(F)ccc21 [Compound 5, (R)-1-(6-fluoro-4-phenyl-3,4-dihydroquinoxaline-1(2H)-yl)-3-(2-methylpyrrolidin-1-yl)propan-1-one]	< 50
C[C@@H]1CCCCN1CCC(=O)N1CCN(c2ccccc2)c2cc(F)ccc21 [Compound 6, (R)-1-(6-fluoro-4-phenyl-3,4-dihydroquinoxaline-1(2H)-yl)-3-(2-methylpiperidin-1-yl)propan-1-one]	50 to 70
CC(C(=O)N1CCN(c2ccccc2)c2cc(F)ccc21)N1CCCC[C@H]1C (stereo partly drawn) [Compound 8, 1-(6-fluoro-4-phenyl-3,4-dihydroquinoxaline-1(2H)-yl)-2-((R)-2-methylpiperidin-1-yl)propan-1-one]	< 50
CC(C(=O)N1CCN(c2ccccc2)c2cc(F)ccc21)N1CCCC1 (stereo not drawn) [Compound 10, 1-(6-fluoro-4-phenyl-3,4-dihydroquinoxaline-1(2H)-yl)-2-(pyrrolidin-1-yl)propan-1-one]	< 50
CC(C(=O)N1CCN(c2ccccc2)c2cc(F)ccc21)N1CCN(C)CC1 (stereo not drawn) [Compound 11, 1-(6-fluoro-4-phenyl-3,4-dihydroquinoxaline-1(2H)-yl)-2-(4-methylpiperazin-1-yl)propan-1-one]	50 to 70
CC(C(=O)N1CCN(c2ccccc2)c2cc(F)ccc21)N1CCC[C@H]1C (stereo partly drawn) [Compound 13]	< 50
O=C(CCN1CCCC1)N1CCN(c2ccc(F)cc2)c2ccccc21 [Compound 14, 1-(4-(4-fluorophenyl)-3,4-dihydroquinoxaline-1(2H)-yl)-3-(pyrrolidin-1-yl)propan-1-one]	≥ 70
O=C(CCN1CCCCC1)N1CCN(c2ccc(F)cc2)c2ccccc21 [Compound 16, 1-(4-(4-fluorophenyl)-3,4-dihydroquinoxaline-1(2H)-yl)-3-(piperidin-1-yl)propan-1-one]	≥ 70
CN1CCN(CCC(=O)N2CCN(c3ccc(F)cc3)c3ccccc32)CC1 [Compound 17, 1-(4-(4-fluorophenyl)-3,4-dihydroquinoxaline-1(2H)-yl)-3-(4-methylpiperazin-1-yl)propan-1-one di-p-toluene sulfonate]	50 to 70
C[C@@H]1CCCCN1CCC(=O)N1CCN(c2ccc(F)cc2)c2ccccc21 [Compound 19, (R)-1-(4-(4-fluorophenyl)-3,4-dihydroquinoxaline-1(2H)-yl)-3-(2-methylpiperidin-1-yl)propan-1-one]	< 50
O=C(CCN1CCN2CCCC2C1)N1CCN(c2ccc(F)cc2)c2ccccc21 (stereo not drawn) [Compound 20, 1-(4-(4-fluorophenyl)-3,4-dihydroquinoxaline-1(2H)-yl)-3-(hexahydropyrrolo[1,2-a]pyrazin-2(1H)-yl)propan-1-one]	50 to 70
O=C(CCNCc1ccccn1)N1CCN(c2ccc(F)cc2)c2ccccc21 [Compound 21, 1-(4-(4-fluorophenyl)-3,4-dihydroquinoxaline-1(2H)-yl)-3-((pyridin-2-ylmethyl)amino)propan-1-one]	50 to 70
O=C(CCN1CC[C@H](O)C1)N1CCN(c2ccc(F)cc2)c2ccccc21 [Compound 23, (S)-1-(4-(4-fluorophenyl)-3,4-dihydroquinoxaline-1(2H)-yl)-3-(3-hydroxypyrrolidin-1-yl)propan-1-one]	≥ 70

Structure (SMILES)	inhibition at 10 µM [%]
CN1CC[C@@H](NCCC(=O)N2CCN(c3ccc(F)cc3)c3ccccc32)C1 [Compound 26, (R)-1-(4-(4-fluorophenyl)-3,4-dihydroquinoxaline-1(2H)-yl)-3-((1-methylpyrrolidin-3-yl)amino)propan-1-one]	≥ 70
CN1CC[C@H](NCCC(=O)N2CCN(c3ccc(F)cc3)c3ccccc32)C1 [Compound 27, (S)-1-(4-(4-fluorophenyl)-3,4-dihydroquinoxaline-1(2H)-yl)-3-((1-methylpyrrolidin-3-yl)amino)propan-1-one]	≥ 70
O=C(CCN1CCNCC1)N1CCN(c2ccc(F)cc2)c2ccccc21 [Compound 28, 1-(4-(4-fluorophenyl)-3,4-dihydroquinoxaline-1(2H)-yl)-3-(piperazin-1-yl)propan-1-one]	≥ 70
O=C(CCc1cnc[nH]1)N1CCN(c2ccc(F)cc2)c2ccccc21 [Compound 29, 1-(4-(4-fluorophenyl)-3,4-dihydroquinoxaline-1(2H)-yl)-3-(1H-imidazol-5-yl)propan-1-one]	≥ 70
CN1CCN(CCCN2CCN(c3ccc(F)cc3)c3ccccc32)CC1 [Compound 30, 1-(4-fluorophenyl)-4-(3-(4-methylpiperazin-1-yl)propyl)-1,2,3,4-tetrahydroquinoxaline]	≥ 70
CC(C(=O)N1CCN(c2ccc(F)cc2)c2ccccc21)N1CCCC1 (stereo not drawn) [Compound 33, 1-(4-(4-fluorophenyl)-3,4-dihydroquinoxaline-1(2H)-yl)-2-(pyrrolidin-1-yl)propan-1-one]	50 to 70
CC(C(=O)N1CCN(c2ccc(F)cc2)c2ccccc21)N1CCN(C)CC1 (stereo not drawn) [Compound 34, 1-(4-(4-fluorophenyl)-3,4-dihydroquinoxaline-1(2H)-yl)-2-(4-methylpiperazin-1-yl)propan-1-one]	< 50
O=C(CCN1CCCC1)N1CCN(c2ccc(F)cc2)c2cc(F)ccc21 [Compound 36, 1-(6-fluoro-4-(4-fluorophenyl)-3,4-dihydroquinoxaline-1(2H)-yl)-3-(pyrrolidin-1-yl)propan-1-one]	≥ 70
O=C(CCN1CCOCC1)N1CCN(c2ccc(F)cc2)c2cc(F)ccc21 [Compound 37, 1-(6-fluoro-4-(4-fluorophenyl)-3,4-dihydroquinoxaline-1(2H)-yl)-3-morpholinopropan-1-one]	< 50
CN1CCN(CCC(=O)N2CCN(c3ccc(F)cc3)c3cc(F)ccc32)CC1 [Compound 39, 1-(6-fluoro-4-(4-fluorophenyl)-3,4-dihydroquinoxaline-1(2H)-yl)-3-(4-methylpiperazin-1-yl)propan-1-one]	50 to 70
C[C@@H]1CCCCN1CCC(=O)N1CCN(c2ccc(F)cc2)c2cc(F)ccc21 [Compound 41, (R)-1-(6-fluoro-4-(4-fluorophenyl)-3,4-dihydroquinoxaline-1(2H)-yl)-3-(2-methylpiperidin-1-yl)propan-1-one]	< 50
O=C(CCN1CCN2CCCC2C1)N1CCN(c2ccc(F)cc2)c2cc(F)ccc21 (stereo not drawn) [Compound 42, 1-(6-fluoro-4-(4-fluorophenyl)-3,4-dihydroquinoxaline-1(2H)-yl)-3-(hexahydropyrrolo[1,2-a]pyrazin-2(1H)-yl)propan-1-one]	< 50
O=C(CCN1CCN(C2CC2)CC1)N1CCN(c2ccc(F)cc2)c2cc(F)ccc21 [Compound 43, 3-(4-cyclopropylpiperazin-1-yl)-1-(6-fluoro-4-(4-fluorophenyl)-3,4-dihydroquinoxaline-1(2H)-yl)propan-1-one]	< 50
O=C(CCN1CC[C@H](O)C1)N1CCN(c2ccc(F)cc2)c2cc(F)ccc21 [Compound 44, (S)-1-(6-fluoro-4-(4-fluorophenyl)-3,4-dihydroquinoxaline-1(2H)-yl)-3-(3-hydroxypyrrolidin-1-yl)propan-1-one]	≥ 70
O=C(CCc1cnc[nH]1)N1CCN(c2ccc(F)cc2)c2cc(F)ccc21 [Compound 46, 1-(6-fluoro-4-(4-fluorophenyl)-3,4-dihydroquinoxaline-1(2H)-yl)-3-(1H-imidazol-5-yl)propan-1-one]	≥ 70
N[C@@H](Cc1c[nH]cn1)C(=O)N1CCN(c2ccc(F)cc2)c2cc(F)ccc21 [Compound 47, (S)-2-amino-1-(6-fluoro-4-(4-fluorophenyl)-3,4-dihydroquinoxaline-1(2H)-yl)-3-(1H-imidazol-4-yl)propan-1-one]	50 to 70
N[C@H](Cc1c[nH]cn1)C(=O)N1CCN(c2ccc(F)cc2)c2cc(F)ccc21 [Compound 48, (R)-2-amino-1-(6-fluoro-4-(4-fluorophenyl)-3,4-dihydroquinoxaline-1(2H)-yl)-3-(1H-imidazol-4-yl)propan-1-one]	< 50
CC(C(=O)N1CCN(c2ccc(F)cc2)c2cc(F)ccc21)N1CCCC[C@H]1C (stereo partly drawn) [Compound 49, 1-(6-fluoro-4-(4-fluorophenyl)-3,4-dihydroquinoxaline-1(2H)-yl)-2-((R)-2-methylpiperidin-1-yl)propan-1-one]	< 50
